Laboratory results as given in PubChem BioAssay (NCI).
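Growth conditions: 96-well plates. Treatment: test compound, 48 hours, 5 concentrations. Analysis: linear interpolation between bracketing concentrations; unreached endpoints set to highest concentration. GI50 is the concentration that inhibits growth by half. At the TGI there is no net growth.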

Key:
Assay in all cases: NCI anticancer screen, dose series, 48 h
786-0 renal = test system: 786-0 renal
A498 renal = test system: A498 renal
A549 NSCLC = test system: A549 NSCLC
ACHN renal = test system: ACHN renal
BT-549 breast = test system: BT-549 breast
CAKI-1 renal = test system: CAKI-1 renal
CCRF-CEM leukemia = test system: CCRF-CEM leukemia
COLO 205 colon = test system: COLO 205 colon
DU-145 prostate = test system: DU-145 prostate
EKVX NSCLC = test system: EKVX NSCLC
HCC-2998 colon = test system: HCC-2998 colon
HCT-116 colon = test system: HCT-116 colon
HCT-15 colon = test system: HCT-15 colon
HL-60(TB) leukemia = test system: HL-60(TB) leukemia
HOP-62 NSCLC = test system: HOP-62 NSCLC
HOP-92 NSCLC = test system: HOP-92 NSCLC
HS 578T breast = test system: HS 578T breast
HT29 colon = test system: HT29 colon
IGROV1 ovarian = test system: IGROV1 ovarian
K-562 leukemia = test system: K-562 leukemia
KM12 colon = test system: KM12 colon
LOX IMVI melanoma = test system: LOX IMVI melanoma
M14 melanoma = test system: M14 melanoma
MALME-3M melanoma = test system: MALME-3M melanoma
MCF7 breast = test system: MCF7 breast
MDA-MB-231 breast = test system: MDA-MB-231 breast
MOLT-4 leukemia = test system: MOLT-4 leukemia
NCI-H226 lung = test system: NCI-H226 lung
NCI-H23 lung = test system: NCI-H23 lung
NCI-H460 lung = test system: NCI-H460 lung
NCI-H522 lung = test system: NCI-H522 lung
NCI/ADR-RES ovarian = test system: NCI/ADR-RES ovarian
OVCAR-3 ovarian = test system: OVCAR-3 ovarian
OVCAR-4 ovarian = test system: OVCAR-4 ovarian
OVCAR-5 ovarian = test system: OVCAR-5 ovarian
OVCAR-8 ovarian = test system: OVCAR-8 ovarian
PC-3 prostate = test system: PC-3 prostate
RPMI-8226 leukemia = test system: RPMI-8226 leukemia
RXF 393 renal = test system: RXF 393 renal
SF-268 CNS = test system: SF-268 CNS
SF-295 CNS = test system: SF-295 CNS
SF-539 CNS = test system: SF-539 CNS
SK-MEL-2 melanoma = test system: SK-MEL-2 melanoma
SK-MEL-28 melanoma = test system: SK-MEL-28 melanoma
SK-MEL-5 melanoma = test system: SK-MEL-5 melanoma
SK-OV-3 ovarian = test system: SK-OV-3 ovarian
SN12C renal = test system: SN12C renal
SNB-19 CNS = test system: SNB-19 CNS
SNB-75 CNS = test system: SNB-75 CNS
SR leukemia = test system: SR leukemia
SW-620 colon = test system: SW-620 colon
T-47D breast = test system: T-47D breast
TK-10 renal = test system: TK-10 renal
U251 CNS = test system: U251 CNS
UACC-257 melanoma = test system: UACC-257 melanoma
UACC-62 melanoma = test system: UACC-62 melanoma
UO-31 renal = test system: UO-31 renal

**Q.** Which results are given for `N#Cc1ccc(/C=N/NC(=O)c2[nH]c3ccc(Br)cc3c2-c2ccccc2)s1`?
**A.** GI50 (786-0 renal): 0.395 µM; TGI (786-0 renal): 13.2 µM; GI50 (A498 renal): 6.54 µM; TGI (A498 renal): 22.5 µM; GI50 (A549 NSCLC): 0.379 µM; TGI (A549 NSCLC): 13 µM; GI50 (ACHN renal): 0.277 µM; TGI (ACHN renal): 9.75 µM; GI50 (BT-549 breast): 0.25 µM; TGI (BT-549 breast): 1.33 µM; GI50 (CAKI-1 renal): 0.374 µM; TGI (CAKI-1 renal): 17.2 µM; GI50 (CCRF-CEM leukemia): 0.173 µM; TGI (CCRF-CEM leukemia): > 100 µM; GI50 (COLO 205 colon): 1.69 µM; TGI (COLO 205 colon): 4.86 µM; GI50 (DU-145 prostate): 0.365 µM; TGI (DU-145 prostate): 13.7 µM; GI50 (EKVX NSCLC): 1.21 µM; TGI (EKVX NSCLC): 26.3 µM; GI50 (HCC-2998 colon): 0.488 µM; TGI (HCC-2998 colon): 9.65 µM; GI50 (HCT-116 colon): 0.118 µM; TGI (HCT-116 colon): 11.1 µM; GI50 (HCT-15 colon): 0.129 µM; TGI (HCT-15 colon): 9.51 µM; GI50 (HL-60(TB) leukemia): 0.0529 µM; TGI (HL-60(TB) leukemia): 0.617 µM; GI50 (HOP-62 NSCLC): 0.519 µM; TGI (HOP-62 NSCLC): 11.6 µM; GI50 (HOP-92 NSCLC): 0.645 µM; TGI (HOP-92 NSCLC): 11.6 µM; GI50 (HS 578T breast): 0.616 µM; TGI (HS 578T breast): 24.7 µM; GI50 (HT29 colon): 0.148 µM; TGI (HT29 colon): 6.9 µM; GI50 (IGROV1 ovarian): 0.221 µM; TGI (IGROV1 ovarian): 9.1 µM; GI50 (K-562 leukemia): 0.109 µM; TGI (K-562 leukemia): > 100 µM; GI50 (KM12 colon): 0.793 µM; TGI (KM12 colon): 18.7 µM; GI50 (LOX IMVI melanoma): 0.309 µM; TGI (LOX IMVI melanoma): 1.43 µM; GI50 (M14 melanoma): 0.235 µM; TGI (M14 melanoma): 14.6 µM; GI50 (MALME-3M melanoma): 0.564 µM; TGI (MALME-3M melanoma): 24.9 µM; GI50 (MCF7 breast): 0.11 µM; TGI (MCF7 breast): 5.87 µM; GI50 (MDA-MB-231 breast): 0.545 µM; TGI (MDA-MB-231 breast): 4 µM; GI50 (MOLT-4 leukemia): 0.243 µM; TGI (MOLT-4 leukemia): 30.2 µM; GI50 (NCI-H226 lung): 0.579 µM; TGI (NCI-H226 lung): 6.27 µM; GI50 (NCI-H23 lung): 0.254 µM; TGI (NCI-H23 lung): 12 µM; GI50 (NCI-H460 lung): 0.34 µM; TGI (NCI-H460 lung): 2.25 µM; GI50 (NCI-H522 lung): 0.0785 µM; TGI (NCI-H522 lung): 0.262 µM; GI50 (NCI/ADR-RES ovarian): 0.118 µM; TGI (NCI/ADR-RES ovarian): 2.09 µM; GI50 (OVCAR-3 ovarian): 0.367 µM; TGI (OVCAR-3 ovarian): 15.7 µM; GI50 (OVCAR-4 ovarian): 0.783 µM; TGI (OVCAR-4 ovarian): 30.2 µM; GI50 (OVCAR-5 ovarian): 0.439 µM; TGI (OVCAR-5 ovarian): 24.6 µM; GI50 (OVCAR-8 ovarian): 0.204 µM; TGI (OVCAR-8 ovarian): 2.19 µM; GI50 (PC-3 prostate): 0.304 µM; TGI (PC-3 prostate): 12.3 µM; GI50 (RPMI-8226 leukemia): 0.149 µM; TGI (RPMI-8226 leukemia): > 20.9 µM; GI50 (RXF 393 renal): 0.222 µM; TGI (RXF 393 renal): 0.487 µM; GI50 (SF-268 CNS): 1.58 µM; TGI (SF-268 CNS): > 64.9 µM; GI50 (SF-295 CNS): 0.0414 µM; TGI (SF-295 CNS): 2.33 µM; GI50 (SF-539 CNS): 0.0878 µM; TGI (SF-539 CNS): 0.543 µM; GI50 (SK-MEL-2 melanoma): 0.451 µM; TGI (SK-MEL-2 melanoma): 16.2 µM; GI50 (SK-MEL-28 melanoma): 0.847 µM; TGI (SK-MEL-28 melanoma): > 37.4 µM; GI50 (SK-MEL-5 melanoma): 0.272 µM; TGI (SK-MEL-5 melanoma): 1.23 µM; GI50 (SK-OV-3 ovarian): 0.993 µM; TGI (SK-OV-3 ovarian): 15.3 µM; GI50 (SN12C renal): 0.227 µM; TGI (SN12C renal): 6.33 µM; GI50 (SNB-19 CNS): 0.439 µM; TGI (SNB-19 CNS): 16.7 µM; GI50 (SNB-75 CNS): 0.63 µM; TGI (SNB-75 CNS): 5.36 µM; GI50 (SR leukemia): 0.0992 µM; TGI (SR leukemia): > 38.8 µM; GI50 (SW-620 colon): 0.182 µM; TGI (SW-620 colon): 14.9 µM; GI50 (T-47D breast): 2.46 µM; TGI (T-47D breast): 27.3 µM; GI50 (TK-10 renal): 1.93 µM; TGI (TK-10 renal): 23.8 µM; GI50 (U251 CNS): 0.312 µM; TGI (U251 CNS): 5.79 µM; GI50 (UACC-257 melanoma): 0.344 µM; TGI (UACC-257 melanoma): 12.9 µM; GI50 (UACC-62 melanoma): 0.139 µM; TGI (UACC-62 melanoma): 6.99 µM; GI50 (UO-31 renal): 0.275 µM; TGI (UO-31 renal): 17.6 µM
